Among the data in US8785457B2 (Cellzome Limited, priority 2009, dated 2014) are IC50 values, retold here.

The subject of assay [1] is S6RP serine-240/244 phosphorylation. Description: In vitro Phospho-S6 cellular assay (pS6RP S240/244) in HEK293T/17 cells. Type of assay: cell-based. As to conditions: Homo sapiens, 2 hours, read-out: pS6 IC50. From the text:
Activation of mTOR signaling results in phosphorylation of several downstream targets. In cells, mTOR exists in two different protein complexes. The mTOR Complex-1 (mTORC1) phosphorylates and activates S6 Kinase 1 (S6K1) and S6 Kinase 2 (S6K2) (also known as p70S6K) which then phosphorylate S6 Ribosomal Protein (S6RP) (also known as RPS6)3. S6RP is phosphorylated on serine 235, serine 236, serine 240 and serine 244 by both pS6K1 and pS6K2. The mTOR Complex-2 (mTORC2) phosphorylates AKT on serine 473 which activates the AKT signaling pathway.
The assay measures a test compound's inhibition of S6RP serine-240/244 phosphorylation and inhibition of Akt serine-473 phosphorylation in human embryonic kidney derived HEK293T/17 cells (ATCC CRL-11268).
The HEK293T/17 cell line is maintained in DMEM media (Invitrogen catalogue number 41965-039) supplemented with 10% FCS at 37° C. in a 5% CO2 humidified incubator.
Cells are seeded in 96-well plates at 40,000 cells/well (pS6RP S240/244 assay) or 80,000 cells/well (pAkt S473 assay) in 90 μl growth media (DMEM, 2% FCS). Plates are incubated for 1 hour in a humidified incubator to allow the cells to adhere. Cells are treated with 8 concentrations of test compounds or DMSO alone for controls (final DMSO concentration 0.1%) and incubated at 37° C. for 2 hours. Then 20 μl of 5× concentrated lysis buffer (750 mM NaCl, 100 mM Tris pH7.4, 5 mM ADTA, 5 mM EGTA, 5% Triton X-100) is added, plates are sealed and incubated for 15 minutes at 4° C. with gentle shaking. After cell lysis, 25 μl cell lysate is transferred to a MesoScale plate coated with an antibody to pS6RP Ser240/244 (MesoScale Discovery K150DGD-3) or an antibody to pAkt Ser 473 (MesoScale Discovery K151DGD-3). Plates have been blocked before by incubation with 150 μl MesoScale Discovery Blocking Solution-A for 1 hour at room temperature followed by washing with 150 μl 1× Tris wash buffer per well. After the transfer of the cell lysate to the MSD plate, the pS6RP (or pAkt) protein is captured on the coated antibody by incubation at room temperature for 1 hour with gentle shaking. After the capture step the plate is washed three times with 150 μl of 1× Tris wash buffer per well. Then 25 μl detection antibody conjugated with a Sulfo-Tag is added and incubated for 1 hour at room temperature with gentle shaking. Subsequently the antibody solution is removed and the plate is washed 3 times with 150 μl×Tris wash buffer per well and 150 μl Read buffer is added. The plates are analysed on a MSD 2400 Plate Reader (MesoScale Discovery). Data analysis is performed using nonlinear regression for a sigmoidal dose-response with a variable slope.

In another assay the target is T1, mTOR (Homo sapiens, UniProt P42345).
T1 construct: endogenous in cells; host or cells: Jurkat, clone E6-1 (ATCC TIB-152) cell lysate
Description: mTOR kinobeads assay (competitive binding in Jurkat cell lysate, immunodetection). As to conditions: kinobeads assay. The essentials: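 IC50 derived from dose-response curves of mTOR captured on immobilized phenylmorpholin-chromen beads, detected by antibody dot blot with infrared fluorescence.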

Where [2] appears, read: Table 4, read-out: Inhibition values (IC50) mTor.
The mark [3] stands for this setting: Table 6, read-out: Inhibition values (IC50) mTOR.

Where two headings read alike, the source gives them in different places.

As to `CCNC(=O)Nc1ccc(-c2nc3c(c(N4CCOC[C@@H]4C)n2)CN(C=O)C3)cc1` [Example 8, (S)-1-ethyl-3-(4-(6-formyl-4-(3-methylmorpholino)-6,7-dihydro-5H-pyrrolo[3,4-d]pyrimidin-2-yl)phenyl)urea], the IC50 in assay [1] is 289 nM; at mTOR (setting [2]), below 100 nM; on mTOR (setting [3]), below 100 nM.

Turning to `C[C@H]1COCCN1c1nc(-c2ccc(NC(=O)NC3CC3)cc2)nc2c1CNCC2` [Example 11, (S)-1-cyclopropyl-3-(4-(4-(3-methylmorpholino)-5,6,7,8-tetrahydropyrido[4,3-d]pyrimidin-2-yl)phenyl)urea], the IC50 in assay [1] is 588 nM; on mTOR (setting [2]) it was 100 to 1000 nM; at mTOR (setting [3]), 100 to 1000 nM.

For the molecule `CCNC(=O)Nc1ccc(-c2nc3c(c(N4CCOC[C@@H]4C)n2)CNCC3)cc1` [Example 12, (S)-1-ethyl-3-(4-(4-(3-methylmorpholino)-5,6,7,8-tetrahydropyrido[4,3-d]pyrimidin-2-yl)phenyl)urea], the figures for the IC50 (in assay [1]; at mTOR (setting [2]); at mTOR (setting [3])) were 839 nM, 100 to 1000 nM and 100 to 1000 nM, respectively.

Turning to `CCNC(=O)Nc1ccc(-c2nc3c(c(N4CCOC[C@@H]4C)n2)CCNC3)cc1` [Example 13, (S)-1-ethyl-3-(4-(4-(3-methylmorpholino)-5,6,7,8-tetrahydropyrido[3,4-d]pyrimidin-2yl)phenyl)urea], the IC50 was 240 nM in assay [1], below 100 nM on mTOR (setting [2]) and below 100 nM on mTOR (setting [3]).

Consider `C[C@H]1COCCN1c1nc(-c2ccc(NC(=O)NC3CC3)cc2)nc2c1CCNC2` [Example 15, (S)-1-cyclopropyl-3-(4-(4-(3-methylmorpholino)-5,6,7,8-tetrahydropyrido[3,4-d]pyrimidin-2-yl)phenyl)urea], for which the IC50 in assay [1] was 238 nM; at mTOR (setting [2]), below 100 nM; on mTOR (setting [3]) it was below 100 nM.

With `CNC(=O)Nc1ccc(-c2nc3c(c(N4CCOC[C@@H]4C)n2)CCNC3)cc1` [Example 16, (S)-1-methyl-3-(4-(4-(3-methylmorpholino)-5,6,7,8-tetrahydropyrido[3,4-d]pyrimidin-2-yl)phenyl)urea], the IC50 was 297 nM in assay [1], below 100 nM on mTOR (setting [2]) and below 100 nM at mTOR (setting [3]).

With `C[C@H]1COCCN1c1nc(-c2ccc(NC(=O)NC3CC3)cc2)nc2c1CN(C(=O)C1CC1)C2` [Example 17, (S)-1-(4-(6-(cyclopropanecarbonyl)-4-(3-methylmorpholino)-6,7-dihydro-5H-pyrrolo[3,4-d]pyrimidin-2-yl)phenyl)-3-cyclopropylurea], the half-inhibitory concentration (IC50) in assay [1] was 142 nM; on mTOR (setting [2]), below 100 nM; at mTOR (setting [3]), below 100 nM.

Consider `CCNC(=O)Nc1ccc(-c2nc3c(c(N4CCOC[C@@H]4C)n2)CN(C(C)=O)C3)cc1` [Example 18, (S)-1-(4-(6-acetyl-4-(3-methylmorpholino)-6,7-dihydro-5H-pyrrolo[3,4-d]pyrimidin-2-yl)phenyl)-3-ethylurea], for which the half-inhibitory concentration (IC50) was 443 nM in assay [1], below 100 nM at mTOR (setting [2]) and below 100 nM at mTOR (setting [3]).

Take `CC(=O)N1Cc2nc(-c3ccc(NC(=O)NC4CC4)cc3)nc(N3CCOC[C@@H]3C)c2C1` [Example 20, (S)-1-(4-(6-acetyl-4-(3-methylmorpholino)-6,7-dihydro-5H-pyrrolo[3,4-d]pyrimidin-2-yl)phenyl)-3-cyclopropylurea]: the IC50 in assay [1] is 330 nM; at mTOR (setting [2]) it was below 100 nM; at mTOR (setting [3]) it was below 100 nM.

Turning to `CCNC(=O)Nc1ccc(-c2nc3c(c(N4CCOC[C@@H]4C)n2)CN(C(=O)C(C)(C)C)C3)cc1` [Example 22, (S)-1-ethyl-3-(4-(4-(3-methylmorpholino)-6-pivaloyl-6,7-dihydro-5H-pyrrolo[3,4-d]pyrimidin-2-yl)phenyl)urea], the IC50 in assay [1] was 87 nM; at mTOR (setting [2]), 100 to 1000 nM; at mTOR (setting [3]), 100 to 1000 nM.

Consider `CCNC(=O)Nc1ccc(-c2nc3c(c(N4CCOC[C@@H]4C)n2)CN(C)C3)cc1` [Example 26, (S)-1-ethyl-3-(4-(6-methyl-4-(3-methylmorpholino)-6,7-dihydro-5H-pyrrolo[3,4-d]pyrimidin-2-yl)phenyl)urea], for which the IC50 in assay [1] was 196 nM; on mTOR (setting [2]), below 100 nM; on mTOR (setting [3]), below 100 nM.

With `C[C@H]1COCCN1c1nc(-c2ccc(NC(=O)NC3CC3)cc2)nc2c1CN(CC1CC1)C2` [Example 30], the figures for the IC50 (in assay [1]; on mTOR (setting [2]); at mTOR (setting [3])) were 170 nM, below 100 nM and below 100 nM, respectively.

Take `CCNC(=O)Nc1ccc(-c2nc3c(c(N4CCOC[C@@H]4C)n2)CN(S(C)(=O)=O)C3)cc1` [Example 32, (S)-1-ethyl-3-(4-(4-(3-methylmorpholino)-6-(methylsulfonyl)-6,7-dihydro-5H-pyrrolo[3,4-d]pyrimidin-2-yl)phenyl)urea]: the IC50 was 182 nM in assay [1], below 100 nM on mTOR (setting [2]) and below 100 nM on mTOR (setting [3]).

Consider `CCNC(=O)N1Cc2nc(-c3ccc(NC(=O)NC4CC4)cc3)nc(N3CCOC[C@@H]3C)c2C1` [Example 33, (S)-2-(4-(3-cyclopropylureido)phenyl)-N-ethyl-4-(3-methylmorpholino)-5H-pyrrolo[3,4-d]pyrimidine-6(7H)-carboxamide], for which the IC50 in assay [1] was 379 nM; at mTOR (setting [2]), below 100 nM; at mTOR (setting [3]), below 100 nM.

For the molecule `CCN1Cc2nc(-c3ccc(NC(=O)NC4CC4)cc3)nc(N3CCOC[C@@H]3C)c2C1` [Example 36, (S)-1-cyclopropyl-3-(4-(6-ethyl-4-(3-methylmorpholino)-6,7-dihydro-5H-pyrrolo[3,4-d]pyrimidin-2-yl)phenyl)urea], the IC50 in assay [1] was 113 nM; at mTOR (setting [2]), below 100 nM; on mTOR (setting [3]), below 100 nM.

As for `C[C@H]1COCCN1c1nc(-c2ccc(NC(=O)NC3CC3)cc2)nc2c1CN(C)C2` [Example 38, (S)-1-cyclopropyl-3-(4-(6-methyl-4-(3-methylmorpholino)-6,7-dihydro-5H-pyrrolo[3,4-d]pyrimidin-2-yl)phenyl)urea], the IC50 was 170 nM in assay [1], below 100 nM at mTOR (setting [2]) and below 100 nM at mTOR (setting [3]).

`CCNC(=O)Nc1ccc(-c2nc3c(c(N4CCOC[C@@H]4C)n2)CN(CC)C3)cc1` [Example 39, (S)-1-ethyl-3-(4-(6-ethyl-4-(3-methylmorpholino)-6,7-dihydro-5H-pyrrolo[3,4-d]pyrimidin-2-yl)phenyl)urea]: the IC50 in assay [1] was 140 nM; at mTOR (setting [2]), below 100 nM; at mTOR (setting [3]), below 100 nM.

For the molecule `CC(C)C(=O)N1Cc2nc(-c3ccc(NC(=O)NC4CC4)cc3)nc(N3CCOC[C@@H]3C)c2C1` [Example 44, (S)-1-cyclopropyl-3-(4-(6-isobutyryl-4-(3-methylmorpholino)-6,7-dihydro-5H-pyrrolo[3,4-d]pyrimidin-2-yl)phenyl)urea], the IC50 in assay [1] is 205 nM; at mTOR (setting [2]), below 100 nM; on mTOR (setting [3]), below 100 nM.

For the molecule `CC(C)N1Cc2nc(-c3ccc(NC(=O)NC4CC4)cc3)nc(N3CCOC[C@@H]3C)c2C1` [Example 46, (S)-1-cyclopropyl-3-(4-(6-isopropyl-4-(3-methylmorpholino)-6,7-dihydro-5H-pyrrolo[3,4-d]pyrimidin-2-yl)phenyl)urea], the figures for the IC50 (in assay [1]; on mTOR (setting [2]); on mTOR (setting [3])) were 147 nM, below 100 nM and below 100 nM, respectively.

On to `CNC(=O)Nc1ccc(-c2nc3c(c(N4CCOC[C@@H]4C)n2)CN(CC2CC2)C3)cc1` [Example 47, (S)-1-(4-(6-(cyclopropylmethyl)-4-(3-methylmorpholino)-6,7-dihydro-5H-pyrrolo[3,4-d]pyrimidin-2-yl)phenyl)-3-methylurea], for which the IC50 in assay [1] was 218 nM; at mTOR (setting [2]), below 100 nM; at mTOR (setting [3]), below 100 nM.

As for `C[C@H]1COCCN1c1nc(-c2ccc(NC(N)=O)cc2)nc2c1CN(CC1CC1)C2` [Example 48, (S)-1-(4-(6-(cyclopropylmethyl)-4-(3-methylmorpholino)-6,7-dihydro-5H-pyrrolo[3,4-d]pyrimidin-2-yl)phenyl)urea], the IC50 in assay [1] was 698 nM; on mTOR (setting [2]), 100 to 1000 nM; on mTOR (setting [3]), 100 to 1000 nM.
